The conditions of this data set: in water.

Consider 2 compounds from BigSolDB 2.1.

Regarding `CCC(N)=O`, the solubility (mole fraction) (as a rule, the moles of solute divided by all moles in the saturated solution) came to 0.134 (278.15 K); 0.163 (283.15 K); 0.195 (288.15 K); 0.232 (293.15 K); 0.276 (298.15 K); 0.315 (303.15 K). The compound further returned a solubility (mole fraction) (308.15 K) of 0.371; a solubility (mole fraction) (313.15 K) of 0.4; a solubility (mole fraction) (318.15 K) of 0.45; a solubility (mole fraction) (323.15 K) of 0.486; a solubility (mole fraction) (328.15 K) of 0.527; a solubility (mole fraction) (333.15 K) of 0.568.

In the case of `CCCC(N)=O`, the solubility (mole fraction) by setting is: (278.15 K) 0.0163; (283.15 K) 0.021; (288.15 K) 0.026; (293.15 K) 0.0331; (298.15 K) 0.0442; (303.15 K) 0.0575. Also, the solubility (mole fraction) is, setting by setting: (308.15 K) 0.0724; (313.15 K) 0.0895; (318.15 K) 0.109; (323.15 K) 0.131; (328.15 K) 0.152; (333.15 K) 0.175.
